Here are results for 23 compounds from patent US11866405B2, “Substituted indazoles as IRAK4 inhibitors” (AstraZeneca AB, priority 2020, dated 2024).

Experiment [1] addresses human recombinant IRAK4 protein (Homo sapiens (Human), UniProt Q9NWZ3). The experiment is described as follows: IRAK4 enzyme assay (mass spectrometry readout). It counts as biochemical. The settings on record: 3 mM ATP, 0.2 nM enzyme; geometric mean of at least n=2, * single experiment. The protocol:
Potency of IRAK4 Inhibitor Compounds in IRAK4 Enzyme Assay
The inhibitory activity of compounds against IRAK4 were determined in an enzymatic assay using mass spectrometry readout. Ten point half-log compound concentration response curves, with a top concentration of 1 μM or 10 μM, were generated from 10 mM stocks of compound solubilized in DMSO using an Echo 655 (Labcyte Inc) and added to 384 well assay plates (Greiner #781280). To the assay plates, 10 μL of human recombinant IRAK4 protein (Life Technologies #PV4002) diluted to a final concentration of 0.2 nM in assay buffer (50 mM Tris-HCl pH 7.4, 10 mM MgCl, 5 mM glutathione, 0.01% BSA, 3 mM ATP) was added. The enzyme was incubated with the compounds at room temperature for 15 minutes before a peptide substrate ([…], Innovagen custom synthesis, 10 mM in DMSO) was added to each well to a final concentration of 10 μM using an Echo 655 (Labcyte Inc). After two hours at room temperature, the reaction was stopped with 90 μL of 0.4% formic acid (Merck #33015). The unphosphorylated and phosphorylated peptide were measured by LC-MS/MS on a Waters TQ-S mass spectrometer. Peaks were integrated using the TargetLynx software and the ratios between phosphorylated and unphosphorylated peptides were calculated. Curves were fitted and compound potencies determined in Genedata Screener 15 (Genedata AG). Data presented are the geometric mean of at least n=2, or as denoted by an * are obtained from a single experiment.

For experiment [2], the target named is IRAK4 auto-phosphorylation (Homo sapiens (Human), UniProt Q9NWZ3). The experiment is described as follows: IRAK4 phosphorylation cell assay in IL-1β-stimulated Karpas-299 cells. It counts as cell-based. The conditions noted are these: IL-1β 22.7 ng/mL, pIRAK4 (Thr345/Ser346), geometric mean of at least 2 experiments. The protocol: IRAK4 Phosphorylation Cell Assay
IRAK4 auto-phosphorylation, sequence (Q9NWZ3 whole entry): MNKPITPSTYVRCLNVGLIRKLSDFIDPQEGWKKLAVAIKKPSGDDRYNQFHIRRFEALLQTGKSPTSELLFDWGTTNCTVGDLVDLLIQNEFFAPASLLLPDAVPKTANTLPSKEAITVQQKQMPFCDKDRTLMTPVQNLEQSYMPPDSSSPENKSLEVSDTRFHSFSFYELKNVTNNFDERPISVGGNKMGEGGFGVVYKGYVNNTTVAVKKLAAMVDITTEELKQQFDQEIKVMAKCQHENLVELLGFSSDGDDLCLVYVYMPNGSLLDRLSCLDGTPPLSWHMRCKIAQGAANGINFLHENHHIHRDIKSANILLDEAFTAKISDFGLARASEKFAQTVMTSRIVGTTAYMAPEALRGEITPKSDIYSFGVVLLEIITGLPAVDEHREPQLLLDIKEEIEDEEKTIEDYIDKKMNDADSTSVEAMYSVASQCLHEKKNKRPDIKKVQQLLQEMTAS
The activation of IRAK4 by TLR or IL-1R ligands leads to IRAK4 auto-phosphorylation, which can be prevented by IRAK4 kinase inhibitors. The effect of IRAK4 inhibitor compounds on IRAK4 auto-phosphorylation was assessed in IL-1β-stimulated Karpas-299 cells as a measurement of cellular potency. Karpas-299 cells were cultured in RPMI 1640 (Gibco 61870-010) containing 10% FBS (Gibco #10270). Cells were plated at 2×10^4 cells per well in poly-D-lysine coated 384 well plates (Corning #356663) to which compounds had been added at various concentrations (10 point half log dose response with a final top concentration of 30 μM) using an Echo 655 (Labcyte Inc). Cells were centrifuged (250 g, 4 mins), incubated at 37° C. for 1 h, then stimulated with 22.7 ng/mL recombinant IL-1β (R&D Systems, #201-LB-025) at 37° C. for 10 mins, followed by fixation in 4% paraformaldehyde for 10 mins and permeabilization in ice-cold 70% MeOH for 30 mins. Cells were washed twice with phosphate-buffered saline (PBS) on a BlueWasher (BlueCatBio) then blocked with PBS containing 10% FBS for 20 mins. Blocking solution was removed with a BlueWasher and cells were stained with anti-pIRAK4 (Thr345/Ser346) (CST, #11927, 1:400) in blocking buffer with 0.05% Tween-20 for 1 h, then washed twice with PBS containing 0.05% Tween-20 on a BlueWasher, followed by staining with a Alexa 647-conjugated secondary anti-rabbit IgG antibody (CST, #4414, 1:2,000) and Hoechst 33342 (Sigma, 1:2,000) in blocking buffer with 0.05% Tween-20 for 30 mins. Finally, the cells were washed twice with PBS containing 0.05% Tween-20 and imaged on an ImageXpress Micro (Molecular Devices) with a 10× air objective using the appropriate filters. Images were analysed in Columbus (PerkinElmer) and the fluorescence intensity per cell from the secondary antibody was quantified. The quantified data were analysed in Genedata Screener 15 (Genedata AG). […] IC50 values are the geometric mean of at least 2 experiments.

human recombinant IRAK4 protein, sequence (Q9NWZ3 whole entry): as above

For orientation: IC50 means the concentration at which inhibition is half-maximal. With `COc1cc2nn(C3CCC(C)(O)CC3)cc2cc1C(=O)Nc1cnc2cccnn12` (single isomer, unassigned) [Example 49, 2-(4-Hydroxy-4-methylcyclohexyl)-N-(imidazo[1,2-b]pyridazin-3-yl)-6-methoxy-2H-indazole-5-carboxamide], the IC50 in experiment [1] was found to be 6.1 nM; in experiment [2] it was 46 nM.
In the same order, the values of `CO[C@H]1C[C@H](Oc2cc3nn(C4CCC5(CC4)CN(C(C)=O)C5)cc3cc2C(=O)Nc2cnc3cccnn23)C1` [Example 100, 2-(2-Acetyl-2-azaspiro[3.5]nonan-7-yl)-N-(imidazo[1,2-b]pyridazin-3-yl)-6-((1r,3r)-3-methoxycyclobutoxy)-2H-indazole-5-carboxamide] are < 0.03 nM and 6 nM.
For `COc1cc2nn([C@H]3CCC[C@@H](O)[C@H]3C)cc2cc1C(=O)Nc1cnc2cccnn12` (single isomer, unassigned) [Example 104] the same measures were 1.1 nM and 25 nM.
In the same order, the values of `COc1cc2nn([C@H]3CC[C@@]4(CC3)CC(=O)N(C)C4)cc2cc1C(=O)Nc1cnn2cccnc12` [Example 87, 6-methoxy-2-((5s,8s)-2-methyl-3-oxo-2-azaspiro[4.5]decan-8-yl)-N-(pyrazolo[1,5-a]pyrimidin-3-yl)-2H-indazole-5-carboxamide] are 0.2 nM and 26 nM.
Regarding `COc1cc2nn([C@H]3CC[C@H](N(C)C(=O)[C@@H](C)O)CC3)cc2cc1C(=O)Nc1cnn2cccnc12` [Example 58], the half-inhibitory concentration (IC50) in experiment [1] worked out at 0.9 nM; in experiment [2] it was 16 nM.
With `COc1cc2nn([C@@H]3CCC(N(C)C(C)=O)C[C@H]3C)cc2cc1C(=O)Nc1cnc2cccnn12` (single isomer, unassigned) [Example 36, N-(imidazo[1,2-b]pyridazin-3-yl)-6-methoxy-2-(1R,2R,4R*)-2-methyl-4-(N-methylacetamido)cyclohexyl)-2H-indazole-5-carboxamide], the IC50 in experiment [1] came to 3.8 nM; in experiment [2], 56 nM.
For `COc1cc2nn([C@H]3CC[C@H](C(=O)N(C)C)CC3)cc2cc1C(=O)Nc1cnc2cccnn12` [Example 4, 2-((1r,4r)-4-(Dimethylcarbamoyl)cyclohexyl)-N-(imidazo[1,2-b]pyridazin-3-yl)-6-methoxy-2H-indazole-5-carboxamide] the same measures were < 0.3 nM and 17 nM.
As for `C[C@H]1C[C@H](O)CC[C@@H]1n1cc2cc(C(=O)Nc3cnn4cccnc34)c(OC3CC3)cc2n1` (relative stereo) [Example 42, rel-6-Cyclopropoxy-2-(1S,2S,4R)-4-hydroxy-2-methylcyclohexyl)-N-(pyrazolo[1,5-a]pyrimidin-3-yl)-2H-indazole-5-carboxamide], the IC50 in experiment [2] is 89 nM.
For the compound `COc1cc2nn([C@H]3CC[C@H](n4ccnn4)CC3)cc2cc1C(=O)Nc1cnc2cccnn12` [Example 102, 2-((1r,4r)-4-(1H-1,2,3-triazol-1-yl)cyclohexyl)-N-(imidazo[1,2-b]pyridazin-3-yl)-6-methoxy-2H-indazole-5-carboxamide], the 50% inhibitory concentration (IC50) in experiment [1] amounted to 0.7 nM; in experiment [2] it was 19 nM.
In the same order, the values of `COc1cc2nn([C@H]3CC[C@H](O)[C@H](C)C3)cc2cc1C(=O)Nc1cnc2cccnn12` (single isomer, unassigned) [Example 78] are 2.5 nM and 52 nM.
For `COc1cc2nn([C@H]3CC[C@H](O)C[C@@H]3C)cc2cc1C(=O)Nc1cnn2cccnc12` (single isomer, unassigned) [Example 39] the same measures were 10 nM and 160 nM.
In the same order, the values of `COc1cc2nn([C@H]3CC[C@H](O)[C@@H](C)C3)cc2cc1C(=O)Nc1cnc2cccnn12` (single isomer, unassigned) [Example 81] are 5.1 nM and 82 nM.
With `COc1cc2nn([C@@H]3CC[C@]4(CC(=O)N(C)C4)C[C@H]3C)cc2cc1C(=O)Nc1cnc2cccnn12` (relative stereo) [Example 73, rel-2-(5R,7R,8R)-2,7-Dimethyl-3-oxo-2-azaspiro[4.5]decan-8-yl)-N-(imidazo[1,2-b]pyridazin-3-yl)-6-methoxy-2H-indazole-5-carboxamide or rel-2-(5R,7S,8S)-2,7-Dimethyl-3-oxo-2-azaspiro[4.5]decan-8-yl)-N-(imidazo[1,2-b]pyridazin-3-yl)-6-methoxy-2H-indazole-5-carboxamide], the IC50 was 3.2 nM in experiment [1] and 57 nM in experiment [2].
For `COc1cc2nn([C@H]3CC[C@]4(CCC(=O)N4C)CC3)cc2cc1C(=O)Nc1cnc2cccnn12` [Example 2, N-(Imidazo[1,2-b]pyridazin-3-yl)-6-methoxy-2-((5s,8s)-1-methyl-2-oxo-1-azaspiro[4.5]decan-8-yl)-2H-indazole-5-carboxamide] the same measures were 3.4 nM and 124 nM.
Turning to `COc1cc2nn([C@H]3CC[C@H](N(C)C(=O)[C@@H]4CC[C@@H](O)C4)CC3)cc2cc1C(=O)Nc1cnn2cccnc12` (relative stereo) [Example 113], the IC50 in experiment [1] is 0.7 nM; in experiment [2], 23 nM.
In the same order, the values of `COc1cc2nn([C@H]3CCC[C@@H](O)C3)cc2cc1C(=O)Nc1cnc2cccnn12` (single isomer, unassigned) [Example 9] are 1.6 nM and 57 nM.
`C[C@@]1(O)CCC[C@H](n2cc3cc(C(=O)Nc4cnn5cccnc45)c(OC4CC4)cc3n2)C1` (relative stereo) [Example 54, rel-6-cyclopropoxy-2-(1S,3R)-3-hydroxy-3-methylcyclohexyl)-N-(pyrazolo[1,5-a]pyrimidin-3-yl)-2H-indazole-5-carboxamide]: in experiment [2], the IC50 is 25 nM.
`COc1cc2nn([C@H]3CCC[C@H](O)[C@@H]3C)cc2cc1C(=O)Nc1cnc2cccnn12` (relative stereo) [Example 106, rel-2-(1S,2R,3S)-3-Hydroxy-2-methylcyclohexyl)-N-(imidazo[1,2-b]pyridazin-3-yl)-6-methoxy-2H-indazole-5-carboxamide] registered an IC50 in experiment [2] of 15 nM.
`COc1cc2nn([C@H]3CC[C@@H](O)C[C@@H]3C)cc2cc1C(=O)Nc1cnn2cccnc12` (relative stereo) [Example 40] registered an IC50 in experiment [2] of 158 nM.
On to `COc1cc2nn([C@@H]3CC[C@]4(CCC(=O)N4C)C[C@H]3C)cc2cc1C(=O)Nc1cnc2cccnn12` (relative stereo) [Example 123, rel-2-(5S,7R,8R)-1,7-Dimethyl-2-oxo-1-azaspiro[4.5]decan-8-yl)-N-(imidazo[1,2-b]pyridazin-3-yl)-6-methoxy-2H-indazole-5-carboxamide], for which the IC50 in experiment [1] is 3 nM.
`COc1cc2nn([C@H]3CC[C@H](N(C)C(=O)[C@@H]4CC[C@H](O)C4)CC3)cc2cc1C(=O)Nc1cnn2cccnc12` (relative stereo) [Example 115]: half-maximal inhibition in experiment [2] (IC50) was put at 20 nM.
On the same count and under the same terms, under `COc1cc2nn([C@H]3CC[C@H](N(C)C(=O)[C@H](C)O)CC3)cc2cc1C(=O)Nc1cnc2cccnn12` [Example 94, 2-((1S,4r)-4-((S)-2-Hydroxy-N-methylpropanamido)cyclohexyl)-N-(imidazo[1,2-b]pyridazin-3-yl)-6-methoxy-2H-indazole-5-carboxamide] stands 10 nM.
`COc1cc2nn([C@@H]3CC[C@H](O)[C@H](C)C3)cc2cc1C(=O)Nc1cnc2cccnn12` (single isomer, unassigned) [Example 76]: the IC50 in experiment [1] is 2.3 nM.
